Assay results published in patent US5002948A, “3-[4-[4-substituted-1-piperazinyl]-1-butyl]-1H-2,3-dihydroindoles” (H. Lundbeck A/S, priority 1988, dated 1991).

Tests used:
5-HT1A [1] = biological target: T1, 5-HT1A (Rattus norvegicus, UniProt P19327); assay: Antagonism of the discriminative stimulus properties induced by 8-OHDPAT in rats; type: in vivo, Male Wistar rats; set-up: from tissue; host or cells: whole living animal, male Wistar rats, s.c. dosing; details: s.c. before 8-OHDPAT, rats trained at 0.4 mg/kg i.p., inhibition of drug responding; for ED50, 8-OH DPAT cue antagonism: 0.4 mg/kg; for ED50: rat, sc, read-out: ED50, 8-OH DPAT cue antagonism
T1 sequence (P19327 1-422): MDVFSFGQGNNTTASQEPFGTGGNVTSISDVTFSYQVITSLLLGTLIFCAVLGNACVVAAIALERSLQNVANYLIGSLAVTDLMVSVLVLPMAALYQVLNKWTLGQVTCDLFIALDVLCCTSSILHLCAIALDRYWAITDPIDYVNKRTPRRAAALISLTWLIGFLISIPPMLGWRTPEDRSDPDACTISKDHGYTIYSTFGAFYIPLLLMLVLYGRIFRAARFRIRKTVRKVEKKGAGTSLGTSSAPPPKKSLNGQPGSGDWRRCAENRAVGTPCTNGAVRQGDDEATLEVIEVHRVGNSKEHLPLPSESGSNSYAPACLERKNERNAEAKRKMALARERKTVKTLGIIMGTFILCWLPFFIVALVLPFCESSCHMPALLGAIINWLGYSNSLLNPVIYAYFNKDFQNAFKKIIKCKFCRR
Method: ANTAGONISM OF THE DISCRIMINATIVE STIMULUS PROPERTIES INDUCED BY 8-OHDPAT IN RATS.
This test model is used to determine the antagonist effects of a test compound on 5-HT1A receptors in vivo. A related method is described by Tricklebank, M. D., J. Neill, E. J. Kidd and J. R. Fozard, Eur. J. Pharmacol. 133, 47-56, 1987; Arnt. J., Pharmacology & Toxicology 64, 165-172, 1989.
Male Wistar rats are trained to discriminate between 8-OHDPAT (0.4 mg/kg, i.p., 15 min. pretreatment) and physiological saline in operant chambers equipped with two response levers. Between the levers a dipper is placed, where water rewards (0.1 ml) are presented. The rats are water deprived for at least 24 h and work in a fixed ratio (FR) schedule (final FR=32).
Following 8-OHDPAT administration responding is reinforced only on a designated (drug) lever, whereas responding on the opposite lever has no consequences. Following saline administration responding is reinforced on the lever opposite to the drug lever. Drug and saline trials alternate randomly between training days, although the same treatment is given maximally at 3 consecutive days. The level of discrimination occuracy is expressed as the per cent drug responses and is calculated as the number of correct responses×100 divided by the sum of the correct and incorrect responses before the first reward. When stable occuracy (mean correct responding=90 per cent; individual rats at least 75 per cent correct responding) is obtained test sessions are included between training days. Test compound is injected s.c. at appropriate time before 8-OHDPAT and the test begins 15 min after 8-OHDPAT injection. The test trial is terminated when a total of 32 responses are made on either lever or when 20 min have elapsed. No reward is given and the rats have free access to water for 20-30 min after the test. The effects are expressed as per cent inhibition of drug responding. Only results from rats making at least 10 responses on one lever are included in data analysis. Furthermore, only test sessions in which at least half of the rats respond are included.
The per cent inhibition of drug response obtained for each dose of test compound is used to calculate ED50 values by log-probit analysis.

5-HT1A [2] = biological target: T1, 5-HT1A; assay: Inhibition of 5-methoxy-N,N-dimethyltryptamine (5-MeODMT) induced 5-HT syndrome in rats; type: in vivo, Male Wistar rats; set-up: Male Wistar rats (Mol:Wist) weighing 170-240 g are used; from tissue; host or cells: whole living animal, male Wistar rats (Mol:Wist), s.c. dosing; details: 30 min before 5-MeODMT 5 mg/kg s.c., per cent inhibition of piano playing syndrome; for ED50: rat, sc
Description: INHIBITION OF 5-METHOXY-N,N-[…] INDUCED 5-HT SYNDROME IN RATS
The so-called 5-HT syndrome is a characteristic behaviour pattern which is induced by 5-HT agonists with effects on 5-HT, possibly 5-HT1A receptors, although lack of specific antagonists make it difficult to evaluate specificity (Smith, L. M. and S. J. Peroutka, Pharmacol. Biochem. & Behaviour 24, 1513-1519, 1986; Tricklebank, M. et al., Eur. J. Pharmacol. 117, 15-24, 1985).
Male Wistar rats (Mol:Wist) weighing 170-240 g are used. Test substrate is injected subcutaneously 30 min. before 5-methoxy-N,N-dimethyltryptamine 5 mg/kg, s.c. Four rats are used for each dose. A control group pretreated with saline is included each test day. Ten, 15 and 20 min later the rats are observed for presence of serotonin (5-HT) syndrome: (1) forepaw treading ("piano playing"), (2) head weaving and (3) hindleg abduction. Further, flat motility is scored. Each part of the syndrome is scored as follows: marked effect (score 2), weak syndrome (score 1) and no effect (score 0). The scores of the three observation times are added. Thus the maximum obtainable score for four rats is 24. The effect of the test substance is expressed as per cent inhibition relative to the control group.
The per cent inhibition of the piano playing syndrome is used as the response, and ED50 values are calculated by log-prohibit analysis.

SMILES | ED50, 8-OH DPAT cue antagonism (5-HT1A [1]) [µmol/kg] | ED50 (5-HT1A [2]) [µmol/kg] | ED50 (5-HT1A [1]) [µmol/kg] | ED50, inhibition of 5-MeODMT induced 5-HT syndrome (5-HT1A [2]; s.c.) [µmol/kg]
COc1ccccc1N1CCN(CCCCC2CNc3ccccc32)CC1 (single isomer, unassigned; (+)) [Compound 7a, (+)-3-[4-[4-(2-methoxyphenyl)-1-piperazinyl]-1-butyl]-1H-2,3-dihydroindole] | 1.0 | 2.1 | – | –
COc1ccccc1N1CCN(CCCCC2CNc3ccccc32)CC1 (stereo not drawn) [Compound 3a, 3-[4-[4-(2-methoxyphenyl)-1-piperazinyl]-1-butyl]-1H-2,3-dihydroindole] | – | 1.9 | 7.2 | –
c1ccc2c(c1)NCC2CCCCN1CCN(c2cccc3c2OCCO3)CC1 (stereo not drawn) [Compound 3j, 3-[4-[4-(1,4-benzodioxan-5-yl)-1-piperazinyl]-1-butyl]-1H-2,3-dihydroindole] | – | 3.1 | 8.8 | –
COc1ccccc1N1CCN(CCCCC2CNc3ccccc32)CC1 (single isomer, unassigned; (-)) [Compound 7b, (-)-3-[4-[4-(2-methoxyphenyl)-1-piperazinyl]-1-butyl]-1H-2,3-dihydroindole] | > 3.4 | – | – | 1.3
CCOc1ccccc1N1CCN(CCCCC2CNc3ccccc32)CC1 (stereo not drawn) [Compound 3c, 3-[4-[4-(2-ethoxyphenyl)-1-piperazinyl]-1-butyl]-1H-2,3-dihydroindole] | – | 0.48 | 4.8 | –
c1ccc2c(c1)NCC2CCCCN1CCN(c2cccc3c2OCC3)CC1 (stereo not drawn) [Compound 3i, 3-[4-[4-(2,3-dihydro-7-benzofuranyl)-1-piperazinyl]-1-butyl]-1H-2,3-dihydroindole] | – | 4 | > 9 | –
